Reference: patent publication US9376436B2, “2-(pyridin-2yl)-1, 7-diaza-spiro [4.4] nonane-6-one compound as voltage-gated sodium channels modulators” (CONVERGENCE PHARMACEUTICALS LIMITED, priority 2011, dated 2016)
Structures can show the parent of a compound that is named as a salt. Where two headings read alike, the source gives them in different places.

Biological target: T1, hNaV1.7 (Homo sapiens, UniProt Q15858)
T1 construct: expressed in transfected cells; host or cells: HEK293
Experiment: QPatch NaV1.7 assay (whole-cell patch clamp, QPatch16x)
Format: cell-based
Conditions: HEK293-hNaV1.7 cells
Method: The compounds of the invention were tested in a QPatch NaV1.7 assay.
HEK293-hNaV1.7 cells were grown in DMEM-F12+10% FBS culture media at 37° C. At a confluency of 50-70% cells were dissociated from culture flasks & triturated to ensure unicellular cell suspension; cell density was measured & adjusted to 2-3×10^6 cells/ml. Recordings were obtained using QPatch16x. The external solution was (in mM): NaCl, 128; KCl, 5; MgCl2, 2; CaCl2, 2; Glucose, 30; HEPES, 15; pH 7.3, 305-315 mOsm. Following seal formation and whole-cell access using internal solution (containing in mM: CsF, 135; EGTA/CsOH, 1/5; HEPES 10; NaCl, 10; pH 7.3, 310-320 mOsM), voltage pulse protocols were applied. Initially a steady state inactivation voltage protocol was used to determine the half-maximal voltage for steady state inactivation (V1/2 SSI). Two holding voltages were used to determine test drug inhibition: −90 mV, where most of the channels are in a closed state; and V1/2 SSI, where half of the channels are inactivated. Currents were elicited […] by stepping to a membrane potential of 0 mV for 20 ms. Four-point cumulative concentration responses were derived by determining the peak current amplitude at each concentration of test drug over 120 second application. Curves were fitted with the Hill equation yielding pIC50 values at −90 mV and V1/2 SSI holding potentials.

[1] = holding voltage V1/2 SSI (half of channels inactivated), read-out: QP Nav1.7 SSI vhalf pIC50 (converted)
[2] = holding voltage −90 mV (most channels closed), read-out: QP Nav1.7 −90 mV pIC50 (converted)

T1 sequence (Q15858 whole entry): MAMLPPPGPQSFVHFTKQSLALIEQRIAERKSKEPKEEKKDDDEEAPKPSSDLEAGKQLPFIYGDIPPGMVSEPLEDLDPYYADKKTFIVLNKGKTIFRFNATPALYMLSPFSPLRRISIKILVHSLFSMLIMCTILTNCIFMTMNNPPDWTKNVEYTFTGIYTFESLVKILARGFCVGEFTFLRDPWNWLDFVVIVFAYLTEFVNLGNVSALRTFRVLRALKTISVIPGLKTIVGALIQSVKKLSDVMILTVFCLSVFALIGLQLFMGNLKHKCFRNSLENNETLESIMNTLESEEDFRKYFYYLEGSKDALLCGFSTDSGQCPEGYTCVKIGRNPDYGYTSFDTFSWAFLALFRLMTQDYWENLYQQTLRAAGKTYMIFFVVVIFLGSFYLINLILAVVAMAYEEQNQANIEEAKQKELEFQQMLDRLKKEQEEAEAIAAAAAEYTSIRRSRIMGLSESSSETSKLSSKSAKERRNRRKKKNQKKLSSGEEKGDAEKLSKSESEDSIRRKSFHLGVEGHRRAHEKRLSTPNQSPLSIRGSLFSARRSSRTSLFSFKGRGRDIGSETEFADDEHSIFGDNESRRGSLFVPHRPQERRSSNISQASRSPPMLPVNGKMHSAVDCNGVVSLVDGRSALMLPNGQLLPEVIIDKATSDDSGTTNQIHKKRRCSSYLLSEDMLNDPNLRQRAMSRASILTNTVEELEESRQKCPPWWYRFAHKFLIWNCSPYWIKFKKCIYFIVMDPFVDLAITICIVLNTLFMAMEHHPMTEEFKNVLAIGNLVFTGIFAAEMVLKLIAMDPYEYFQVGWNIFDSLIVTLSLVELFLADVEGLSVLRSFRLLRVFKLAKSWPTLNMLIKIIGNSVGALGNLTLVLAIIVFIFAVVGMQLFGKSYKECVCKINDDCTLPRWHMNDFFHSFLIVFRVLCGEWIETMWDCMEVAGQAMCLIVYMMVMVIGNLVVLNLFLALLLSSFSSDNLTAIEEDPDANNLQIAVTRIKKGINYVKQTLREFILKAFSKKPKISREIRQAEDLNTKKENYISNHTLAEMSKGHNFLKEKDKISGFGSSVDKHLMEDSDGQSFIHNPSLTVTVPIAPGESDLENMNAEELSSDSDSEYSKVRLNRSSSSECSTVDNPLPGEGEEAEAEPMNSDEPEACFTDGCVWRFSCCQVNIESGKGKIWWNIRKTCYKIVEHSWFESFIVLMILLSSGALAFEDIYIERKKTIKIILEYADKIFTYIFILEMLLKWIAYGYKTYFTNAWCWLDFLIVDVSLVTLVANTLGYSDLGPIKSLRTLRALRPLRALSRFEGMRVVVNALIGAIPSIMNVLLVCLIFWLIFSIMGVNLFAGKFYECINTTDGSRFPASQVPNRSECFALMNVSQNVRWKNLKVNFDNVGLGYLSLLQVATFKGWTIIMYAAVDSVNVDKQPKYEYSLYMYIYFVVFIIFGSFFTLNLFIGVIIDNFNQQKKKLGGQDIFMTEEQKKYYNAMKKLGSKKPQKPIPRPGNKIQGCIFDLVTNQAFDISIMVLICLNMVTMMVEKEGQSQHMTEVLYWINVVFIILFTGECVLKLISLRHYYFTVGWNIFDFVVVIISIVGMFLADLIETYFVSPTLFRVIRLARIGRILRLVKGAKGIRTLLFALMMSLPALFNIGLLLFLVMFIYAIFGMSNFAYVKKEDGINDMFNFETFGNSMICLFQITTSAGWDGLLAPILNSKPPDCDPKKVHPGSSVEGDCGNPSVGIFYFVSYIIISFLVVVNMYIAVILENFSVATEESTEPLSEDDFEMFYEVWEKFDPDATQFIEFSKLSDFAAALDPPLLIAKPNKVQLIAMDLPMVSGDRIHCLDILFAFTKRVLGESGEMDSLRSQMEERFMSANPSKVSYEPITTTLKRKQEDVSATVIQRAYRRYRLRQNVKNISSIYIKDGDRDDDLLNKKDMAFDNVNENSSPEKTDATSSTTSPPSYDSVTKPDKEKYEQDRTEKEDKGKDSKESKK

SMILES | IC50 [1] [µM] | IC50 [2] [µM]
Cc1c(-c2ccc(F)cc2)ccnc1[C@H]1CC[C@@]2(CCN(C)C2=O)N1 [Example 19, (2R,5S)-2-[4-(4-Fluorophenyl)-3-methyl-2-pyridyl]-7-methyl-1,7-diazaspiro[4.4]nonan-6-one hydrochloride] | 6.31 | 50.1
Cc1c(-c2ccc(F)cc2)ccnc1[C@@H]1CC[C@@]2(CCN(C)C2=O)N1 [Example 20, (2S,5S)-2-[4-(4-Fluorophenyl)-3-methyl-2-pyridyl]-7-methyl-1,7-diazaspiro[4.4]nonan-6-one hydrochloride] | 31.6 | 316
Cc1cc(-c2cc(C(F)(F)F)ccc2C#N)cc([C@@H]2CC[C@]3(CCN(C)C3=O)N2)n1 [Example 21, 2-[2-Methyl-6-[(2S,5R)-7-methyl-6-oxo-1,7-diazaspiro[4.4]-nonan-2-yl]-4-pyridyl]-4-(trifluoromethyl)-benzonitrile hydrochloride] | 31.6 | 794
Cc1cc(-c2cc(C(F)(F)F)ccc2C#N)cc([C@H]2CC[C@]3(CCN(C)C3=O)N2)n1 [Example 22, 2-[2-Methyl-6-[(2R,5R)-7-methyl-6-oxo-1,7-diazaspiro[4.4]-nonan-2-yl]-4-pyridyl]-4-(trifluoromethyl)-benzonitrile hydrochloride] | 158 | 1000
Cc1cc(-c2cc(C(F)(F)F)ccc2C#N)cc([C@H]2CC[C@@]3(CCN(C)C3=O)N2)n1 [Example 23, 2-[2-Methyl-6-[(2R,5S)-7-methyl-6-oxo-1,7-diazaspiro[4.4]nonan-2-yl]-4-pyridyl]-4-(trifluoromethyl)benzonitrile hydrochloride] | 79.4 | 631
Cc1cc(-c2cc(C(F)(F)F)ccc2C(N)=O)cc([C@H]2CC[C@@]3(CCN(C)C3=O)N2)n1 [Example 24, 2-[2-Methyl-6-[(2R,5S)-7-methyl-6-oxo-1,7-diazaspiro[4.4]nonan-2-yl]-4-pyridyl]-4-(trifluoromethyl)benzamide hydrochloride] | 398 | 1000
Cc1cc(-c2cc(C(F)(F)F)ccc2C(N)=O)cc([C@@H]2CC[C@@]3(CCN(C)C3=O)N2)n1 [Example 25, 2-[2-Methyl-6-[(2S,5S)-7-methyl-6-oxo-1,7-diazaspiro[4.4]nonan-2-yl]-4-pyridyl]-4-(trifluoromethyl)benzamide hydrochloride] | 1580 | 
Cc1cc(-c2cc(C(F)(F)F)ccc2C(N)=O)cc([C@H]2CC[C@]3(CCN(C)C3=O)N2)n1 [Example 26, 2-[2-Methyl-6-[(2R,5R)-7-methyl-6-oxo-1,7-diazaspiro[4.4]nonan-2-yl]-4-pyridyl]-4-(trifluoromethyl)benzamide hydrochloride] | 794 | 
Cc1cc(-c2cc(C(F)(F)F)ccc2C(N)=O)cc([C@@H]2CC[C@]3(CCN(C)C3=O)N2)n1 [Example 27, 2-[2-Methyl-6-[(2S,5R)-7-methyl-6-oxo-1,7-diazaspiro[4.4]nonan-2-yl]-4-pyridyl]-4-(trifluoromethyl)benzamide hydrochloride] | 39800 | 
Cc1cc(-c2ccc(C(F)(F)F)cc2)cc([C@H]2CC[C@@]3(CCN(C)C3=O)N2)n1 [Example 28, (2R,5S)-7-Methyl-2-[6-methyl-4-[4-(trifluoromethyl)phenyl]-2-pyridyl]-1,7-diazaspiro[4.4]nonan-6-one hydrochloride] | 5.01 | 31.6
Cc1cc(-c2ccc(C(F)(F)F)cc2)cc([C@@H]2CC[C@@]3(CCN(C)C3=O)N2)n1 [Example 29, (2S,5S)-7-Methyl-2-[6-methyl-4-[4-(trifluoromethyl)phenyl]-2-pyridyl]-1,7-diazaspiro[4.4]nonan-6-one hydrochloride] | 20 | 126
Cc1cc(-c2ccc(C(F)(F)F)cc2)cc([C@@H]2CC[C@]3(CCN(C)C3=O)N2)n1 [Example 30, (2S,5R)-7-Methyl-2-[6-methyl-4-[4-(trifluoromethyl)phenyl]-2-pyridyl]-1,7-diazaspiro[4.4]nonan-6-one hydrochloride] | 5.01 | 39.8
Cc1cc(-c2ccc(C(F)(F)F)cc2)cc([C@H]2CC[C@]3(CCN(C)C3=O)N2)n1 [Example 31, (2R,5R)-7-Methyl-2-[6-methyl-4-[4-(trifluoromethyl)phenyl]-2-pyridyl]-1,7-diazaspiro[4.4]nonan-6-one hydrochloride] | 20 | 79.4
CN1CC[C@@]2(CC[C@H](c3cc(-c4ccccc4F)ccn3)N2)C1=O [Example 32, (2R,5S)-2-[4-(2-Fluoro-phenyl)-pyridin-2-yl]-7-methyl-1,7-diaza-spiro[4.4]nonan-6-one hydrochloride] | 39.8 | 251
CN1CC[C@@]2(CC[C@@H](c3cc(-c4ccccc4F)ccn3)N2)C1=O [Example 33, (2S,5S)-2-[4-(2-Fluoro-phenyl)-pyridin-2-yl]-7-methyl-1,7-diaza-spiro[4.4]nonan-6-one hydrochloride] | 39.8 | 126
CN1CC[C@]2(CC[C@@H](c3cc(-c4ccccc4F)ccn3)N2)C1=O [Example 34, (2S,5R)-2-[4-(2-Fluoro-phenyl)-pyridin-2-yl]-7-methyl-1,7-diaza-spiro[4.4]nonan-6-one hydrochloride] | 158 | 251
CN1CC[C@]2(CC[C@H](c3cc(-c4ccccc4F)ccn3)N2)C1=O [Example 35, (2R,5R)-2-[4-(2-Fluoro-phenyl)-pyridin-2-yl]-7-methyl-1,7-diaza-spiro[4.4]nonan-6-one hydrochloride] | 100 | 398
O=C1NCC[C@@]12CC[C@@H](c1cc(-c3ccc(C(F)(F)F)cc3)ccn1)N2 [Example 36, (2S,5S)-2-[4-[4-(Trifluoromethyl)phenyl]-2-pyridyl]-1,7-diazaspiro[4.4]nonan-6-one hydrochloride] | 0.794 | 20
O=C1NCC[C@@]12CC[C@H](c1cc(-c3ccc(C(F)(F)F)cc3)ccn1)N2 [Example 37, (2R,5S)-2-[4-[4-(Trifluoromethyl)phenyl]-2-pyridyl]-1,7-diazaspiro[4.4]nonan-6-one hydrochloride] | 0.794 | 25.1
O=C1NCC[C@@]12CC[C@@H](c1cc(-c3ccc(C(F)(F)F)cc3F)ccn1)N2 [Example 38, (2S,5S)-2-[4-[2-Fluoro-4-(trifluoro-methyl)phenyl]-2-pyridyl]-1,7-diazaspiro[4.4]nonan-6-one hydrochloride] | 7.94 | 63.1
O=C1NCC[C@@]12CC[C@H](c1cc(-c3ccc(C(F)(F)F)cc3F)ccn1)N2 [Example 39, (2R,5S)-2-[4-[2-Fluoro-4-(trifluoro-methyl)phenyl]-2-pyridyl]-1,7-diazaspiro[4.4]nonan-6-one hydrochloride] | 20 | 79.4
Cc1cnc([C@@H]2CC[C@@]3(CCN(C)C3=O)N2)cc1-c1ccc(C(F)(F)F)cc1 [Example 40, (2S,5S)-7-Methyl-2-[5-methyl-4-[4-(trifluoromethyl)phenyl]-2-pyridyl]-1,7-diazaspiro[4.4]nonan-6-one hydrochloride] | 1.58 | 50.1
Cc1cnc([C@H]2CC[C@@]3(CCN(C)C3=O)N2)cc1-c1ccc(C(F)(F)F)cc1 [Example 41, (2R,5S)-7-Methyl-2-[5-methyl-4-[4-(trifluoromethyl)phenyl]-2-pyridyl]-1,7-diazaspiro[4.4]nonan-6-one hydrochloride] | 2 | 25.1
Cc1cnc([C@H]2CC[C@]3(CCN(C)C3=O)N2)cc1-c1ccc(C(F)(F)F)cc1 [Example 42, (2R,5R)-7-Methyl-2-[5-methyl-4-[4-(trifluoromethyl)phenyl]-2-pyridyl]-1,7-diazaspiro[4.4]nonan-6-one hydrochloride] | 2 | 25.1
Cc1cnc([C@@H]2CC[C@]3(CCN(C)C3=O)N2)cc1-c1ccc(C(F)(F)F)cc1 [Example 43, (2S,5R)-7-Methyl-2-[5-methyl-4-[4-(trifluoromethyl)phenyl]-2-pyridyl]-1,7-diazaspiro[4.4]nonan-6-one hydrochloride] | 3.16 | 39.8
CC1(C)C[C@@]2(CC[C@@H](c3cc(-c4ccc(C(F)(F)F)cc4)ccn3)N2)C(=O)N1 [Example 44, (2S,5S)-8,8-Dimethyl-2-[4-[4-(trifluoromethyl)phenyl]-2-pyridyl]-1,7-diazaspiro[4.4]nonan-6-one hydrochloride] | 10 | 50.1
CC1(C)C[C@@]2(CC[C@H](c3cc(-c4ccc(C(F)(F)F)cc4)ccn3)N2)C(=O)N1 [Example 45, (2R,5S)-8,8-Dimethyl-2-[4-[4-(trifluoromethyl)phenyl]-2-pyridyl]-1,7-diazaspiro[4.4]nonan-6-one hydrochloride] | 3.16 | 39.8
CC1(C)C[C@]2(CC[C@H](c3cc(-c4ccc(C(F)(F)F)cc4)ccn3)N2)C(=O)N1 [Example 46, (2R,5R)-8,8-Dimethyl-2-[4-[4-(trifluoromethyl)phenyl]-2-pyridyl]-1,7-diazaspiro[4.4]nonan-6-one hydrochloride] | 0.794 | 10
